According to US8124356B2, “Methods of purifying zsig33” (ZymoGenetics, Inc., priority 1999, dated 2012):

Columns and labels:
[1] = test system: duodenum, jejunum, kidney and other harvested tissues; test: Binding studies of FITC-labeled zsig33 peptides in situ (tail vein injection, fluorescent microscopy of tissue sections); assay type: in vivo, Balb C male mice; settings: FITC-labeled peptide, 0.5 ml (0.5 mg) tail vein, circulated 15 minutes, microscopy at 495 nm
Protocol: Ten week old Balb C male mice were anesthetized via intramuscular injection and tested for binding of zsig33 peptides in vivo.
Two peptides were tested: the first peptide, zsig33-1, (See Example 4) consisted of residues 24 to 37 of SEQ ID NO:2, and the second peptide, zsig33-2, consisted of residues 24 to 41 of SEQ ID NO:2. A single glycine was used as a negative control. Additionally, a “scrambled” negative control consisting of residues the first peptide which had been rearranged (SEQ ID NO:15) was also tested. The peptides and controls were coupled to fluorescein isothiocyantate (FITC, Molecular Probes, Eugene, Oreg.) in the following manner: The peptides, glycine control and FITC were dissolved in 0.1 M sodium bicarbonate at pH 9.0 to a concentration of 2.0 mg/ml for the peptides and glycine control and 5 mg/ml for FITC, avoiding exposure of the FITC to strong light. […] The buffer was changed daily and unbound FITC in the post-dialyzed buffer was measured by HPLC. […] Peptide- or glycine-bound FITC was determined by measuring the absorbance of the dialyzed FITC-bound material at 498 nm and dividing by the extinction coefficient of fluorescein, […]. The molar ratio of fluorescein to peptide (mole FITC/mole peptide) was then determined. […]

[2] = test system: antral portion of the stomach; test: Effects on gastrointestinal contractility (transducing crystals on antral portion of the stomach); assay type: in vivo, Sprague-Dawley rats
Protocol: Two male Sprague-Dawley rats, approximately 12 weeks old (Harlan, Indianapolis, Ind.) were anesthetized with urethane and their stomachs were exposed through a small abdominal incision. Two 2.4 mm transducing crystals (Sonometrics, Ontario, Canada) were placed on the antral portion of the stomach such that circular contractions could be monitored as a change in the distance between the two crystals. The crystals were attached with VETBOND TISSUE ADHESIVE (3M, St. Paul, Minn.).
10 ml of norepinephrine (NE) at 1 mM caused a reduction in the distance between the two crystals. The amplitude of the NE-induced decrease was approximately 50% of the acetylcholine-induced increase in distance. Both responses were transient.
A negative control of 10 ml of phosphate buffer solution (PBS) applied topically between the crystals had no effect.
A 14 amino acid zsig33 peptide (zsig33-1, as shown in Example 4) was dissolved in PBS and 10 ml was applied topically for a final concentration of 1 mg, 10 mg or 100 mg.

[3] = Effects on glucose absorption after oral glucose challenge; assay type: in vivo, ob/ob mice; settings: 100 mg orally, 30 minutes prior to an oral glucose challenge (0.5 ml of 25% glucose), serum glucose
Protocol: Eight female ob/ob mice, approximately 6 weeks old (Jackson Labs, Bar Harbor, Me.) were adapted to a 4 hour daily feeding schedule for two weeks. After two weeks on the feeding schedule, the mice were given 100 mg of a zsig33 peptide (zsig33-1, as shown in Example 4) in 100 ml sterile 0.1% BSA by oral gavage, immediately after their eating period (post-prandially). Thirty minutes later, the mice were challenged orally with a 0.5 ml volume of 25% glucose. Retroorbital bleeds were done to determine serum glucose levels. Blood was drawn prior to zsig33 dosing, prior to oral glucose challenge, and at 1, 2, 4, and 20 hours following the glucose challenge.

[4] = test system: stomachs of fasted male Sprague-Dawley rats; test: Effects on gastric emptying (transit of phenol red through the stomach); assay type: in vivo; settings: 1 μg applied topically to the stomach five minutes after gavage, measured 30 minutes after the gavage
Protocol: The effect of topically applied zsig33 peptide (amino acid 24 to 37 of SEQ ID NO: 2) on the transit of phenol red through the stomachs of fasted male Sprague-Dawley rats (Harlan, Indianapolis, Ind.) was evaluated. The rats (6 animals, 8 weeks old) were fasted 24 hrs prior to being anesthetized with urethane (0.5 ml/100 grams of 25% solution). After anesthetizing, the animals were orally gavaged with 1 ml of Phenol Red solution (50 mg/ml in 2% methylcellulose solution).
The stomach of each animal was exposed through a small abdominal incision and either 1 μg zsig33 peptide or a 14 amino acid control of a scrambled sequence peptide was applied topically to the stomach five minutes following the gavage. The amount of Phenol Red remaining in the stomach was determined by measuring optical density of the extracted stomach contents 30 minutes after the gavage.

[5] = Effects on body weight, food intake and glucose clearance; assay type: in vivo, ob/ob mice; settings: 1 mg/mouse orally twice daily for fourteen days, versus scrambled peptide
Protocol: Sixteen female ob/ob mice, 8 weeks old, (Jackson Labs, Bar Harbor, Me.) were adapted to a special 4 hour daily feeding schedule for two weeks. The were fed ad libitum from 7:30-11:30 am daily. After two weeks on the feeding schedule, the mice were divided into two groups of 8. One group was given 1.0 mg/mouse of zsig33-1 (14 amino acid peptide) and the other vehicle (a 14 amino acid scrambled sequence peptide) in […] sterile 0.1% BSQA by oral gavage just prior to receiving food, and at the end of the 4 hour feeding period. The mice were […] twice daily for fourteen days, during which time food intake and body weight was measured daily. On day 14, immediately after the second oral gavage of the zsig33-1 peptide, the mice were challenged orally with an 0.5 ml volume of 25% glucose. Retro-orbital bleeds were done to determine serum glucose levels immediately prior to administration of the zsig33-1 peptide or vehicle (t=30 min.), and also at 0, 1, 2, and 4 hours following the glucose challenge.

Compound | fluorescence in duodenum, jejunum and in the collecting ducts and convoluted tubules of the kidney compared to the glycine and "scrambled" controls [1] | change in crystal distance (contractions) ([2]; 10 ml in PBS applied topically, 1 mg) | response in rate and amplitude of the contractions ([2]; 10 ml in PBS applied topically, 10 mg and 100 mg, compared with 1 mg) | post-prandial glucose absorption [3] | reduction of the amount of Phenol Red remaining in the stomach compared to a scrambled peptide [4] | daily body weight [5] | daily food intake [5] | amplitude of the NE-induced decrease relative to the acetylcholine-induced increase in distance ([2]; 10 ml of 1 mM applied topically) | change in the distance between the two crystals ([2]; 10 ml of 1 mM applied topically to the stomach, anesthetized rats)
zsig33-2: peptide consisting of residues 24 to 41 of SEQ ID NO:2 (GSSFLSPEHQRVQQRKES; listed as Homo sapiens) | increased fluorescence | – | – | – | – | – | – | – | –
zsig33-1: 14 amino acid peptide corresponding to amino acid residue 24 (Gly) to amino acid residue 37 (Gln) of SEQ ID NO: 2 (GSSFLSPEHQRVQQ; listed as Homo sapiens) | increased fluorescence | sustained, rhythmic increase and decrease in crystal distance | enhanced responses in both rate and amplitude | enhanced post-prandial glucose absorption | approximately 25% | no affect | no affect | – | –
NC[C@H](O)c1ccc(O)c(O)c1 [norepinephrine, reference compound] | – | – | – | – | – | – | – | approximately 50% | reduction
